Read-outs that look alike come from different tables or passages of the source. Non-standard residues stand in square brackets, D forms with d. Residues, ends and D or L forms follow the SMILES beside them. pT = C[C@@H](OP(=O)(O)O)[C@H](N)C(=O)O
Tests used:
Format in all cases: binding
GABARAPL2 = target: T1, GABARAPL2 (Homo sapiens, UniProt P60520); assay: FP displacement assay, GABARAPL2
T1 construct: GABARAPL2_ATG8__P60520_2_115; GST (cleaved yes); made in house; host or cells: Escherichia coli BL21-Gold(DE3)
Method: (§1) FP experiments were performed as described previously (Kliche et al, [2021]). Shortly, in order to monitor the binding event, FITC‐labelled peptides were used (excitation 495 nm, emission: 535 nm) and the FP signal was recorded in mP on a SpectraMax iD5 Multi‐Mode Microplate Reader (Molecular Devices) by measuring the emitted light in two angels. The measurements were performed at room temperature and prepared in nonbinding black half area 96‐well microplates (Corning®; 50 μl/well). For measuring direct binding, that is saturation curves, a 1:1 dilution series of protein domain (25 μl/well) was generated in 50 mM sodium phosphate buffer pH 7.4 and the measurement performed with 5 nM FITC‐labelled peptide (25 μl/well). The buffer‐corrected values were subsequently plotted with PRISM and fitted to the quadratic equation (Gianni et al, [2005]).
(§2) The 1:1 dilution series in this experiment was performed with the unlabelled peptide in 50 mM sodium phosphate buffer pH 7.4, so that each well‐contained unlabelled peptide (25 μl) at a certain concentration and pre‐formed complex (25 μl). The KD values of this indirectly monitored binding event were calculated as described previously (Nikolovska‐Coleska et al, [2004]). All measurements were at least in technical triplicates as well as biological duplicates when indicated. An amplitude shift between repeat measurements in the displacement experiments was occasionally observed due to variations in the protein preparations. If that was the case, the “active” protein concentration was back‐calculated according to the quadratic equation from the saturation curves performed in parallel. By comparing the active protein concentrations in the complex between different protein preparations, the amplitude was normalised.

MAP1LC3B = target: T2, MAP1LC3B (Homo sapiens, UniProt Q9GZQ8); assay: FP displacement assay, MAP1LC3B; conditions: read-out: KD values ± SEM
T2 construct: GST (cleaved yes); made in house; host or cells: Escherichia coli BL21-Gold(DE3)
Method: as §1, §2

MAP1LC3A = target: T3, MAP1LC3A (Homo sapiens, UniProt Q9H492); assay: FP displacement assay, MAP1LC3A; conditions: for IC50: Fig 4B, MAP1LC3A ATG8, FP displacement, technical triplicates, read-out: IC50 values of displacement curves, with SEM; for Kd: read-out: KD values ± SEM
T3 construct: GST (cleaved yes); made in house; host or cells: Escherichia coli BL21-Gold(DE3)

MAP1LC3B ATG8 = target: T4, MAP1LC3B ATG8 (Homo sapiens, UniProt Q9GZQ8); assay: ITC, MAP1LC3B ATG8
T4 construct: MAP1LC3B ATG8; made in house; host or cells: Escherichia coli BL21-Gold(DE3)

T1 sequence (P60520 2-115): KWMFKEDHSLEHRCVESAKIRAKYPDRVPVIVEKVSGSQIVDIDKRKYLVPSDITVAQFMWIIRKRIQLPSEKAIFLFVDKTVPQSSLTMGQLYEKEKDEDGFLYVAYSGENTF

| Structure (SMILES) | Kd (GABARAPL2; read-out: KD values ± SEM) [µM] | Kd (MAP1LC3B) [µM] | IC50 (MAP1LC3A) [µM] | Kd (MAP1LC3A) [µM] | other results |
| --- | --- | --- | --- | --- | --- |
| CC(=O)N[C@@H](Cc1ccc(O)cc1)C(=O)N[C@@H](CCCCN)C(=O)N[C@@H](CCCCN)C(=O)N[C@@H](CCC(N)=O)C(=O)N[C@@H](CC(C)C)C(=O)N[C@@H](CCCCN)C(=O)N[C@@H](CCCNC(=N)N)C(=O)N[C@@H](Cc1ccccc1)C(=O)N[C@@H](COP(=O)(O)O)C(=O)N[C@H](C(=O)N[C@@H](CCC(=O)O)C(=O)N[C@@H](CCC(=O)O)C(=O)N[C@@H](Cc1ccccc1)C(=O)N[C@H](C(=O)N[C@@H](CC(C)C)C(=O)N[C@@H](CC(C)C)C(=O)O)C(C)C)[C@@H](C)O [ATG4C444–458 pS] | 0.1 ± 0.2 | 1.9 ± 0.3 | 5.5 ± 0.7 | 1.3 ± 0.1 | – |
| CC(=O)N[C@@H](CC(C)C)C(=O)N[C@@H](CCC(=O)O)C(=O)N[C@@H](CC(=O)O)C(=O)N[C@@H](CC(=O)O)C(=O)N[C@@H](CCC(=O)O)C(=O)N[C@@H](CCC(N)=O)C(=O)N[C@@H](Cc1ccccc1)C(=O)N[C@H](C(=O)N[C@@H](CO)C(=O)N[C@@H](CC(C)C)C(=O)N[C@@H](Cc1ccc(O)cc1)C(=O)NCC(=O)N[C@H](C(=O)N[C@@H](CCC(=O)O)C(=O)N[C@@H](CCC(=O)O)C(=O)N[C@@H](Cc1ccc(O)cc1)C(N)=O)[C@@H](C)O)C(C)C [TBK1_164–179 wt] | 19 ± 4 | 10.5 ± 0.1 | – | – | Kd (MAP1LC3B ATG8; ITC (iTC200), 50 mM sodium phosphate pH 7.4, 1 mM DTT, average of the runs, at least technical triplicates): 8 µM; Ka (MAP1LC3B ATG8; ITC single run: date 2101 new, injection 1): 84300; Ka (MAP1LC3B ATG8; ITC single run: date 200402, injection 1): 143000; Ka (MAP1LC3B ATG8; ITC single run: date 200402, injection 2): 170000; Ka (MAP1LC3B ATG8; ITC single run: date 200402, injection 3): 144000 |
| CC(=O)N[C@@H](C)C(=O)N[C@@H](CC(N)=O)C(=O)N[C@@H](CO)C(=O)N[C@@H](Cc1c[nH]c2ccccc12)C(=O)N[C@@H](CCC(N)=O)C(=O)N[C@@H](CC(C)C)C(=O)N[C@H](C(=O)N[C@@H](CCC(=O)O)C(=O)N[C@H](C(=O)N1CCC[C@H]1C(=O)N[C@@H](CCC(=O)O)C(=O)N[C@@H](CCCCN)C(=O)N[C@@H](CCCNC(=N)N)C(=O)N[C@@H](CCCCN)C(=O)N[C@@H](CCC(=O)O)C(=O)N[C@@H](CCC(=O)O)C(N)=O)[C@@H](C)OP(=O)(O)O)C(C)C [DLGAP4_907–922 pS] (Ac-ANSWQLVE[pT]PEKRKEE-NH2) | – | – | – | – | Kd (GABARAPL2): 150 ± 32 µM |
| CC(=O)N[C@@H](CCC(N)=O)C(=O)N[C@@H](CC(N)=O)C(=O)N[C@@H](CC(C)C)C(=O)N[C@@H](CO)C(=O)N[C@@H](CCCNC(=N)N)C(=O)N[C@@H](COP(=O)(O)O)C(=O)N[C@@H](Cc1c[nH]c2ccccc12)C(=O)N[C@@H](Cc1c[nH]cn1)C(=O)N[C@@H](CC(=O)O)C(=O)N[C@H](C(=O)N[C@@H](CCC(N)=O)C(=O)N[C@H](C(=O)N[C@@H](CO)C(=O)N[C@@H](CO)C(=O)N[C@@H](C)C(=O)N[C@@H](Cc1ccc(O)cc1)C(N)=O)C(C)C)C(C)C [TPD52L2_91–106 pS] | – | 61 ± 2 | – | – | – |
| CC(=O)N[C@@H](Cc1ccc(O)cc1)C(=O)N[C@@H](CCCCN)C(=O)N[C@@H](CCCCN)C(=O)N[C@@H](CCC(N)=O)C(=O)N[C@@H](CC(C)C)C(=O)N[C@@H](CCCCN)C(=O)N[C@@H](CCCNC(=N)N)C(=O)N[C@@H](Cc1ccccc1)C(=O)N[C@@H](CO)C(=O)N[C@H](C(=O)N[C@@H](CCC(=O)O)C(=O)N[C@@H](CCC(=O)O)C(=O)N[C@@H](Cc1ccccc1)C(=O)N[C@H](C(=O)N[C@@H](CC(C)C)C(=O)N[C@@H](CC(C)C)C(=O)O)C(C)C)[C@@H](C)O [ATG4C444–458 wt] | 0.8 ± 0.4 | 7.1 ± 0.6 | 17 ± 1 | 5.2 ± 0.2 | – |
| CC(=O)N[C@@H](CCC(N)=O)C(=O)N[C@@H](CC(N)=O)C(=O)N[C@@H](CC(C)C)C(=O)N[C@@H](CO)C(=O)N[C@@H](CCCNC(=N)N)C(=O)N[C@@H](CO)C(=O)N[C@@H](Cc1c[nH]c2ccccc12)C(=O)N[C@@H](Cc1c[nH]cn1)C(=O)N[C@@H](CC(=O)O)C(=O)N[C@H](C(=O)N[C@@H](CCC(N)=O)C(=O)N[C@H](C(=O)N[C@@H](CO)C(=O)N[C@@H](CO)C(=O)N[C@@H](C)C(=O)N[C@@H](Cc1ccc(O)cc1)C(N)=O)C(C)C)C(C)C [TPD52L2_91–106 wt] | – | 760 ± 150 | – | – | – |

From paper PMC10333884, “Large‐scale phosphomimetic screening identifies phospho‐modulated motif‐based protein interactions” (Molecular Systems Biology, 2023)
